Molecules are shown by their SMILES.

Test [1] concerns the target T1, Progesterone receptor (Homo sapiens, UniProt P06401).
T1 sequence (P06401 whole entry): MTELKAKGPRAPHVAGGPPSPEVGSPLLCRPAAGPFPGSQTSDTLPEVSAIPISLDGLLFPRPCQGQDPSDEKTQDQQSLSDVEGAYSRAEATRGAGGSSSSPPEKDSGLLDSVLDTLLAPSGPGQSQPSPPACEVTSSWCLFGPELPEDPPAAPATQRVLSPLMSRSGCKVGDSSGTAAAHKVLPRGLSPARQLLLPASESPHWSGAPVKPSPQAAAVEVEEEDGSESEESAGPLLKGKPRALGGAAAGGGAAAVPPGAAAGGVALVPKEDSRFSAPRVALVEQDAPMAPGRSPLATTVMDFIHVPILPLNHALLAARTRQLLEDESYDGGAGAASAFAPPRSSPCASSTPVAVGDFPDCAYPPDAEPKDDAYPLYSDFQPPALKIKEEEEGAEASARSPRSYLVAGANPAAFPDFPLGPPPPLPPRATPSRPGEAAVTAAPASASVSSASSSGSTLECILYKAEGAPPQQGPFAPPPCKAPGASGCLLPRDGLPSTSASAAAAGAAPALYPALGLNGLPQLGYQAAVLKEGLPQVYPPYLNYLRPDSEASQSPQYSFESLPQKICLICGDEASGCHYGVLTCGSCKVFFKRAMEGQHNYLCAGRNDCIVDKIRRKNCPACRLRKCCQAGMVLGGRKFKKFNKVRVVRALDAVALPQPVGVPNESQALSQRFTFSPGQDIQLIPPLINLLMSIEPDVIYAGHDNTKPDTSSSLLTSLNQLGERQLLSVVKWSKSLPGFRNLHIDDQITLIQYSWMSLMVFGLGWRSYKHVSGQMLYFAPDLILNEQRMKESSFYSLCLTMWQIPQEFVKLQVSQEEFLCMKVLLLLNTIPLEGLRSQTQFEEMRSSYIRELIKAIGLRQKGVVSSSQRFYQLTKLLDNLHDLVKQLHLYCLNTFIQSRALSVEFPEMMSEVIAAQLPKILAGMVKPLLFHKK
The test can be described thus: Activation of progesterone receptor in human T47D cells up to 1000 nM after 20 hrs by PRE-tagged luciferase reporter gene assay. Type of test: cell-based. On the technique in general: A reporter such as luciferase makes a cellular process visible.

Test [2] deals with T2, Glucocorticoid receptor (Homo sapiens, UniProt P04150).
T2 sequence (P04150 whole entry): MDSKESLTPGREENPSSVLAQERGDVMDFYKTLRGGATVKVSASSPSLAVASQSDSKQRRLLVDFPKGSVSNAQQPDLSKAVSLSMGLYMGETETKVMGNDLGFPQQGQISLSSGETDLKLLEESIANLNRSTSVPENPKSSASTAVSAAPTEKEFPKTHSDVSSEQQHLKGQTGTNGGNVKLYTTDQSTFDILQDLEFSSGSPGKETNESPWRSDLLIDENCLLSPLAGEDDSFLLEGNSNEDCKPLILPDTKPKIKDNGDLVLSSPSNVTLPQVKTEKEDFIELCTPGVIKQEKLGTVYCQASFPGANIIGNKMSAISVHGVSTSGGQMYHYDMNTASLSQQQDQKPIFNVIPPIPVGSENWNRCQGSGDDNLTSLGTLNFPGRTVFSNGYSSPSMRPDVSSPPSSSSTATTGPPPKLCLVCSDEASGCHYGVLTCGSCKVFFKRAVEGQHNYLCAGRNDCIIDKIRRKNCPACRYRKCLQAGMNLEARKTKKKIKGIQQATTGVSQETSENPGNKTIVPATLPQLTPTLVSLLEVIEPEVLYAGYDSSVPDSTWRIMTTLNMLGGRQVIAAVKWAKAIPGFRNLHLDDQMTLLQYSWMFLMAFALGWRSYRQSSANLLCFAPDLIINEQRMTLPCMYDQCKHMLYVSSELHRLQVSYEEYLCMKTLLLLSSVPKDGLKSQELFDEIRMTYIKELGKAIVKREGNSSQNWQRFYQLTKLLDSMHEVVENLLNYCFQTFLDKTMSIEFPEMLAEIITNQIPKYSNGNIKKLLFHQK
As to the kind of experiment: Antagonist activity at glucocorticoid receptor ligand binding domain expressed in african green monkey COS7 cells co-transfected with Gal4-LBD up to 10 uM by luciferase reporter gene assay. Particulars: cos-7; call rule not given here. Type of test: cell-based.

Test [3] addresses T3, Estrogen receptor (Homo sapiens, UniProt P03372).
T3 sequence (P03372 whole entry): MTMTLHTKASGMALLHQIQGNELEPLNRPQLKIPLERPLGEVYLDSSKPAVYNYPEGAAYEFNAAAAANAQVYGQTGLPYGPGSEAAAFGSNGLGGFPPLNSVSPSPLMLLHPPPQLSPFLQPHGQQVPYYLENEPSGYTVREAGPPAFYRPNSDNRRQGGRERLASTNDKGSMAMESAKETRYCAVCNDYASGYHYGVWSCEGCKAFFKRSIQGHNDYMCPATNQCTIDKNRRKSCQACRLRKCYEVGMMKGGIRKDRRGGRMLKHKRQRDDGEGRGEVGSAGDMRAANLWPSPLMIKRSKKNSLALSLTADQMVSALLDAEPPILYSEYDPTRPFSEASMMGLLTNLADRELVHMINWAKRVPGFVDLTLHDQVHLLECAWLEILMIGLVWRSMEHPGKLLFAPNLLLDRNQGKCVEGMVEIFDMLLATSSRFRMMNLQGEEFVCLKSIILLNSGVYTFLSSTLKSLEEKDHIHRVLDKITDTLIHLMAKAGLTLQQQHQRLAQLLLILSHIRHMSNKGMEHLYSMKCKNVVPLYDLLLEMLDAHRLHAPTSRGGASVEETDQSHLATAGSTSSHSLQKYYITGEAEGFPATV
As to the kind of experiment: Antagonist activity at estrogen receptor alpha ligand binding domain expressed in african green monkey COS7 cells co-transfected with Gal4-LBD up to 10 uM by luciferase reporter gene assay. In kind it is cell-based. As to conditions: cos-7.

Test [4] deals with T1, Progesterone receptor. The test can be described thus: Displacement of progesterone from progesterone receptor in human T47D cells after 3 hrs. Type of test: cell-based.
The target of test [5] is T4, Progesterone receptor (Homo sapiens) (UniProt P06401).
T4 sequence (whole entry): T1 sequence (P06401 whole entry)
As to the kind of experiment: Ratio of compound IC50 to progesterone IC50 for progesterone receptor in human T47D cells. Type of test: cell-based.

The target of test [6] is T5, Glucocorticoid receptor (Homo sapiens) (UniProt P04150).
T5 sequence (whole entry): T2 sequence (P04150 whole entry)
As to the kind of experiment: Antagonist activity at glucocorticoid receptor ligand binding domain expressed in african green monkey COS7 cells co-transfected with Gal4-LBD by luciferase reporter gene assay relative to control. Type of test: cell-based. Particulars: COS-7. Set-up: scale not given: the % may be the effect or the level left.

The target of test [7] is T6, Estrogen receptor (Homo sapiens) (UniProt P03372).
T6 sequence (whole entry): T3 sequence (P03372 whole entry)
As to the kind of experiment: Antagonist activity at estrogen receptor alpha ligand binding domain expressed in african green monkey COS7 cells co-transfected with Gal4-LBD by luciferase reporter gene assay relative to control. Type of test: cell-based. More on the design: scale not given: the % may be the effect or the level left. As to conditions: COS-7.

Test [8] addresses T2, Glucocorticoid receptor.
Test [9] addresses T3, Estrogen receptor.

For orientation: IC50 means the point on the concentration scale where inhibition reaches its midpoint. As to `CC1(C)C(=O)CC[C@]2(C)[C@@]3(C)c4[nH]c5ccccc5c4C[C@@H]3CC[C@@]12O` [LECANINDOLE B], the EC50 result on Progesterone receptor [1] is reported as “Not Active”. Also, the IC50 result at Glucocorticoid receptor [2] and on Estrogen receptor [3] was “Not Active” each time.

As to `CC1(C)[C@H](O)CC[C@]2(C)[C@@]3(C)c4[nH]c5ccccc5c4C[C@@H]3CC[C@@]12O` [LECANINDOLE D], the IC50 was 5.5 nM on Progesterone receptor [4], above 1000 nM on Glucocorticoid receptor [8] and above 10000 nM against Estrogen receptor [9]. Besides, the Ratio IC50 in test [5] is 10. For the same molecule, the Activity was determined as 58% in test [6] and 19% in test [7].

(Values after ChEMBL document CHEMBL1154793, “The lecanindoles, nonsteroidal progestins from the terrestrial fungus Verticillium lecanii 6144” (J Nat Prod, 2009).)
